Data reported in patent publication US7538193B2, “NO-modified hemoglobins and uses therefor” (Duke University, priority 1995, dated 2009).

What was measured:
[1] = system: rabbit thoracic aorta rings; experiment: Rabbit aortic ring bioassay: vessel tone and ACh (EDRF)-mediated relaxation; type: cell-based; conditions: 1 μM addition; ACh-mediated relaxation of rabbit aortic ring
From the text: The effects of native Hb on EDRF responses were compared with Hb preparations in which the thiol or heme centers had been blocked by alkylation or cyanmet derivitization, respectively. All preparations of Hb elicited contractions; however, those of native Hb (in which both SH and metal centers are free for interaction) were most pronounced. […] Relaxations were inhibited to lesser degrees by cyanmet Hb (CN-Hb) (in which hemes were blocked from reaction) and NEM-Hb (in which thiol groups were alkylated by N-ethylmaleimide). […] Direct measurement of SNO-Hb, formed from EDRF under similar conditions, is described in Example 8.
Descending rabbit thoracic aorta were cut into 3 mm rings and mounted on stirrups attached to force transducers (model FT03, Grass Instruments, Quincy, Mass.) for measurement of isometric tone. The details of this bioassay system have been previously described (Stamler, J. S., et al., Proc. Natl. Acad. Sci. USA, 89:444-448 (1992)). Cyanmet Hb was prepared from human HbA according to published protocols (Kilbourn, R. G. et al. Biochem. Biophys. Res. Comm., 199:155-162, (1994)). Alkylation of HbA with N-ethylmaleimide was followed by desalting across G-25 Sephadex to remove excess NEM. Removal of unmodified Hbcysβ93 was achieved by passage through Hg-containing affinity columns. The alkylation of free SH groups was verified using 5,5′-dithio-bis[2-nitrobenzoic acid].

[2] = system: rabbit thoracic aortic rings, endothelium removed; experiment: Oxygen-dependent vessel ring bioassay (Examples 22, 23); type: cell-based
[3] = system: rat brain (caudatoputamen nucleus); experiment: Brain blood flow in rats by H2 clearance (Example 12); type: in vivo; conditions: rats breathing 21% O2; 100 or 1000 nmol/kg
Method: SNO-Hb(FeII)O2, having a SNO/Hb ratio of 2, was prepared (from HbA0) by reaction with S-nitrosothiol. Rats breathing 21% O2 were injected (time 0) with Hbs prepared from HbA0 as indicated in FIG. 10 (open circles, SNO-Hb (100 nmol/kg); filled circles, SNO-Hb (1000 nmol/kg); filled squares, unmodified Hb (1000 nmol/kg)). Three rats were used per experiment. Blood flow was measured in brain using the H2 clearance method; microelectrodes were placed in the brain stereotactically. […] NO group release is promoted by local tissue hypoxia.

[4] = system: substantia nigra, caudate putamen nucleus and parietal cortex of Sprague-Dawley rats; experiment: O2-dependent local cerebral blood flow in rats (Example 25); type: in vivo, rat; conditions: 1 μmol/kg infused over 3 minutes
Method: Adult male Sprague-Dawley rats (290-350 g) were anesthetized with sodium pentobarbital (50 mg/kg IP), intubated and ventilated with a small animal respirator (Edco Scientific Inc., Chapel Hill, N.C.) at a rate and tidal volume to maintain normal values of PaCO2 (35-45 mm Hg; PaCO2=systemic arterial blood carbon dioxide tension). The femoral vein and artery were cannulated for infusion of drugs and for continuous monitoring of systemic blood pressure, respectively. Aliquots of arterial blood (200 μl) were drawn periodically to measure blood gas tensions and pH (Instrumentation Laboratory Co., model 1304 blood gas/pH analyzer). The blood was replaced intravenously with three volumes of normal saline. The inspired O2 concentration was varied using premixed gases balanced with nitrogen. The tissue PO2 was measured continuously with polarographic platinum microelectrodes (50 μm O.D. coated with hydrophobic gas permeable Nafion) implanted stereotaxically in both the right and left hippocampus (AP-3.4 mm, ML+2.2 mm), caudate putamen nucleus and substantia nigra (see coordinates below) (Young, W., Stroke, 11:552-564 (1980); Heiss, W. D. and Traupett, H., Stroke, 12:161-167 (1981); Dewhirst, M. W. et al., Cancer Res., 54:3333-3336 (1994); Kerger, H. et al., Am. J. Physiol., 268:H802-H810 (1995)). The PO2 electrodes were polarized to −0.65V against a distant Ag/AgCl reference located on the tail and the current flow was measured using a low-impedance nA-meter. Regional arterial PO2 was adjusted by changing the inspired O2 concentration and atmospheric pressure.
Polarographic hydrogen (H2)-sensitive microelectrodes were implanted stereotaxically in the substantia nigra (AP −5.3 mm, ML −2.4 mm to the bregma, depth 3.2 mm), caudate putamen nucleus (CPN) (AP +0.8 mm, ML −2.5 mm, depth 5.2 mm) and parietal cortex, for measurement of regional blood flow (Young, W., Stroke, 11:552-564 (1980); Heiss, W. D. and Traupett, H., Stroke, 12:161-167 (1981)). The microelectrodes were made from platinum wire and insulated with epoxy, with the exception of the tip (1 mm) which was coated with Nafion. For placement, the electrodes were mounted on a micromanipulator and the rat's head was immobilized in a Kopf stereotaxic frame. H2-sensitive electrodes were polarized to +400 mV against a distant reference electrode on the tail, and the polarographic current was measured using a low-impedance nA meter during and after the inhalation of hydrogen gas (2.5%) for 1 min. Both the hydrogen clearance curves and voltage for oxygen measurements were made using PC WINDAQ (software, DI-200 AC, Dataq Instruments, Inc., Akron, Ohio). Cerebral blood flow was calculated using the initial slope method (Young, W., Stroke, 11:552-564 (1980); Heiss, W. D. and Traupett, H., Stroke, 12:161-167 (1981)). Regional blood flow responses were monitored for 30 min. prior to and 30 min. following drug administration; hemoglobins were given at time 0.
The cerebrovascular effects of SNO-Hb were measured in adult male Sprague-Dawley rats using O2 and H2 (blood flow)-sensitive microelectrodes that were placed stereotaxically in several regions of the brain as for Example 24.

Hb: native, underivatized human hemoglobin A purified from red cells
% ACh RELAXATION [1]: 31.9 ± 6.9 (n = 7) %
effect on vessel tone ([2]; 1 μM, rings contracted with phenylephrine under hypoxic conditions (6-7 torr)): progressive increases in vessel tone
effect of 10 μM glutathione on the response ([2]; 10 μM glutathione in bioassay chambers): no effect
effect on vessel tension ([2]; 95% O2 or 21% O2 (R-structure)): contract blood vessels
effect on vessel tension ([2]; <1% O2 (~6 torr), T-structure): strongly contracts blood vessels
blood flow to the brain [3]: decreases blood flow
local cerebral blood flow ([4]; 21% O2): decreased local blood flow
local cerebral blood flow ([4]; 100% O2 + 3 ATA): tended to decrease cerebral flow to similar extents
local cerebral blood flow ([4]; 100% O2): preserved
